# From patent US20210220356A1, “DIHYDROPYRIMIDINE DERIVATIVES AND USES THEREOF IN THE TREATMENT OF HBV INFECTION OR OF HBV-INDUCED DISEASES” (Janssen Sciences Ireland Unlimited Company, priority 2018, published 2021)
# Where a name gives a salt, the structure may show the parent alone. Read-outs that look alike come from different tables or passages of the source.
# Key:
# HBV = HBV inhibitory activity in HepG2.2.15 cells (HBV DNA in culture medium by q-PCR); type: cell-based
# How it was run: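 HepG2.2.15 cells (40,000/well, 2% FBS) treated 6 days with compounds, medium refreshed once; 8 points, 3-fold dilution, top 10 uM. Secreted HBV DNA in medium extracted and quantified by q-PCR; EC50 calculated from dose-response.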
# [1] = Cytotoxicity determination in HepG2.2.15 cells (CCK-8); type: cell-based; conditions: human, HepG2.2.15 cells, 5,000 cells/well, 6 days of compound treatment, CCK-8 absorbance 450 nm, highest concentration 100 uM
# How it was run: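 HepG2.2.15 cells, 5,000/well in 2% FBS medium, treated 6 days with compound (medium refreshed midway), 8-point 3-fold dilutions from 100 uM top. Viability read by CCK-8, 2.5 h at 37° C, absorbance 450 nm with 630 nm reference; CC50 from curve fitting.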
# [2] = HepG2.2.15 cells, 40,000 cells/well, 6 days of compound treatment, HBV DNA in culture medium by q-PCR, highest concentration 10 uM, read-out: EC50
# [3] = Hepatitis B virus, HepG2.2.15, 144 h, HepG2.2.15 cells, 40,000 cells/well, 6 days of compound treatment, HBV DNA in culture medium by q-PCR, highest concentration 10 uM, read-out: EC50
# [4] = Hepatitis B virus, HepG2.2.15, 144 h
SMILES,EC50 (HBV; [2]),CC50 at 6 days ([1]; HepG2.2.15 cells),EC50 (HBV; [3]),EC50 (HBV; [4]),CC50 at 6 days [1]
"CCOC(=O)C1=C(C2CCc3nn(CCCC(=O)O)cc3C2)NC(c2nccs2)=NC1c1ccc(F)c(F)c1Cl (single isomer, unassigned) [Compound 50b, 4-(5-(6-(2-Chloro-3,4-difluorophenyl)-5-(ethoxycarbonyl)-2-(thiazol-2-yl)-3,6-dihydropyrimidin-4-yl)-4,5,6,7-tetrahydro-2H-indazol-2-yl)butanoic acid]",116 nM,12600 nM,,,
"CCOC(=O)C1=C(C2CCc3sc(CCC(=O)O)nc3C2)NC(c2nccs2)=NC1c1ccc(F)c(F)c1Cl (single isomer, unassigned) [Compound 59c, 3-(5-(6-(2-Chloro-3,4-difluorophenyl)-5-(ethoxycarbonyl)-2-(thiazol-2-yl)-3,6-dihydropyrimidin-4-yl)-4,5,6,7-tetrahydrobenzo[d]thiazol-2-yl)propanoic acid]",,4100 nM,132 nM,,
"CCOC(=O)C1=C(C2Cc3cn(CCC(=O)O)nc3C(C)(C)C2)NC(c2nccs2)=NC1c1ccc(F)c(F)c1Cl (stereo not drawn) [Compound 55a, 3-(5-(6-(2-chloro-3,4-difluorophenyl)-5-(ethoxycarbonyl)-2-(thiazol-2-yl)-3,6-dihydropyrimidin-4-yl)-7,7-dimethyl-4,5,6,7-tetrahydro-2H-indazol-2-yl)propanoic acid]",81 nM,8500 nM,,,
"CCOC(=O)C1=C(C2CCc3nn(CCC(=O)O)cc3C2)NC(c2nccs2)=NC1c1ccc(F)cc1C (single isomer, unassigned) [Compound 38a, 3-(5-(5-(Ethoxycarbonyl)-6-(4-fluoro-2-methylphenyl)-2-(thiazol-2-yl)-3,6-dihydropyrimidin-4-yl)-4,5,6,7-tetrahydro-2H-indazol-2-yl)propanoic acid]",14.5 nM,28200 nM,,,
"CCOC(=O)C1=C(C2CCc3nn(CCC(C)(C)C(=O)O)cc3C2)NC(c2nccs2)=NC1c1ccc(F)c(F)c1Cl (stereo not drawn) [Compound 88d, 4-(5-(6-(2-Chloro-3,4-difluorophenyl)-5-(ethoxycarbonyl)-2-(thiazol-2-yl)-3,6-dihydropyrimidin-4-yl)-4,5,6,7-tetrahydro-2H-indazol-2-yl)-2,2-dimethylbutanoic acid]",,9800 nM,20.8 nM,,
"CCOC(=O)C1=C(C2CCc3nn(CC(C)(C)C(=O)O)cc3C2)NC(c2ncc(F)cc2F)=NC1c1ccc(F)c(F)c1Cl (stereo not drawn) [Compound 94c, 3-(5-(6-(2-Chloro-3,4-difluorophenyl)-2-(3,5-difluoropyridin-2-yl)-5-(ethoxycarbonyl)-3,6-dihydropyrimidin-4-yl)-4,5,6,7-tetrahydro-2H-indazol-2-yl)-2,2-dimethylpropanoic acid hydrochloride]",,,,7.1 nM,16500 nM
"CCOC(=O)C1=C(C2CCc3c(cn(CCC(=O)O)c3C#N)C2)NC(c2nccs2)=NC1c1ccc(F)c(F)c1Cl (stereo not drawn) [Compound 62, 3-(5-(6-(2-Chloro-3,4-difluorophenyl)-5-(ethoxycarbonyl)-2-(thiazol-2-yl)-3,6-dihydropyrimidin-4-yl)-1-cyano-4,5,6,7-tetrahydro-2H-isoindol-2-yl)propanoic acid]",,5000 nM,6.9 nM,,
"CCOC(=O)C1=C(C2CCc3nc(CCC(=O)O)oc3C2)NC(c2nccs2)=NC1c1ccc(F)c(F)c1Cl (single isomer, unassigned) [Compound 58b, 3-(6-(6-(2-Chloro-3,4-difluorophenyl)-5-(ethoxycarbonyl)-2-(thiazol-2-yl)-3,6-dihydropyrimidin-4-yl)-4,5,6,7-tetrahydrobenzo[d]oxazol-2-yl)propanoic acid]",,9800 nM,6.2 nM,,
"COC(=O)C1=C(C2CCc3nn(CCC(=O)O)cc3C2)NC(c2nccs2)=NC1c1ccc(F)c(F)c1C (stereo not drawn) [Compound 76c, 3-(5-(6-(3,4-difluoro-2-methylphenyl)-5-(methoxycarbonyl)-2-(thiazol-2-yl)-3,6-dihydropyrimidin-4-yl)-4,5,6,7-tetrahydro-2H-indazol-2-yl)propanoic acid]",,16100 nM,13 nM,,
"COC(=O)C1=C(C2CCc3nn(C(C)(C)CC(=O)O)cc3C2)NC(c2nccs2)=NC1c1ccc(F)c(F)c1Cl (single isomer, unassigned) [Compound 82b]",86.1 nM,15900 nM,,,
"COC(=O)C1=C(C2CCc3nn(CCC(=O)O)cc3C2)NC(c2nccs2)=NC1c1ccc(F)c(F)c1Br (single isomer, unassigned) [Compound 46a, 3-(5-(6-(2-Bromo-3,4-difluorophenyl)-5-(methoxycarbonyl)-2-(thiazol-2-yl)-3,6-dihydropyrimidin-4-yl)-4,5,6,7-tetrahydro-2H-indazol-2-yl)propanoic acid]",219 nM,17300 nM,,,
"COC(=O)C1=C(C2CCc3nc(CCC(=O)O)ncc3C2)NC(c2nccs2)=NC1c1ccc(F)c(F)c1Cl (stereo not drawn) [Compound 64, 3-(6-(6-(2-Chloro-3,4-difluorophenyl)-5-(methoxycarbonyl)-2-(thiazol-2-yl)-3,6-dihydropyrimidin-4-yl)-5,6,7,8-tetrahydroquinazolin-2-yl)propanoic acid]",,26400 nM,70 nM,,
"CCOC(=O)C1=C(C2CCc3[nH]ncc3C2)NC(c2nccs2)=NC1c1ccc(F)c(F)c1Cl (stereo not drawn) [Compound 66, Ethyl 4-(2-chloro-3,4-difluorophenyl)-6-(4,5,6,7-tetrahydro-1H-indazol-5-yl)-2-(thiazol-2-yl)-1,4-dihydropyrimidine-5-carboxylate]",,6400 nM,64.7 nM,,
"CCOC(=O)C1=C(C2CCc3nn(CCC(=O)O)cc3C2)NC(c2nccs2)=NC1c1ccc(F)c(F)c1Cl (single isomer, unassigned) [Compound 34a, 3-(5-(6-(2-chloro-3,4-difluorophenyl)-5-(ethoxycarbonyl)-2-(thiazol-2-yl)-3,6-dihydropyrimidin-4-yl)-4,5,6,7-tetrahydro-2H-indazol-2-yl)propanoic acid]",385 nM,27500 nM,,,
"COC(=O)C1=C(C2CCc3nn(CCC(=O)O)cc3C2)NC(c2nccs2)=NC1c1cccc(F)c1Br (single isomer, unassigned) [Compound 45b, 3-(5-(6-(2-Bromo-3-fluorophenyl)-5-(methoxycarbonyl)-2-(thiazol-2-yl)-3,6-dihydropyrimidin-4-yl)-4,5,6,7-tetrahydro-2H-indazol-2-yl)propanoic acid]",213 nM,18200 nM,,,
"COC(=O)C1=C(C2CCc3[nH]ncc3C2)NC(c2nccs2)=NC1c1ccc(F)c(F)c1Cl (single isomer, unassigned) [Compound 65a, Methyl 4-(2-chloro-3,4-difluorophenyl)-6-(4,5,6,7-tetrahydro-1H-indazol-5-yl)-2-(thiazol-2-yl)-1,4-dihydropyrimidine-5-carboxylate]",56.3 nM,11800 nM,,,
"COC(=O)C1=C(C2CCc3nc(C(=O)O)oc3C2)NC(c2nccs2)=NC1c1ccc(F)c(F)c1Cl (stereo not drawn) [Compound 78c, lithium 6-(6-(2-chloro-3,4-difluorophenyl)-5-(methoxycarbonyl)-2-(thiazol-2-yl)-3,6-dihydropyrimidin-4-yl)-4,5,6,7-tetrahydrobenzo[d]oxazole-2-carboxylate]",,,,57.1 nM,52000 nM
"CCOC(=O)C1=C(C2CCc3nc(CCC(=O)O)sc3C2)NC(c2nccs2)=NC1c1ccc(F)c(F)c1Cl (single isomer, unassigned) [Compound 60b, 3-(6-(6-(2-Chloro-3,4-difluorophenyl)-5-(ethoxycarbonyl)-2-(thiazol-2-yl)-3,6-dihydropyrimidin-4-yl)-4,5,6,7-tetrahydrobenzo[d]thiazol-2-yl)propanoic acid]",,3400 nM,24.1 nM,,
"CCOC(=O)C1=C(C2CCc3nn(CCC(=O)O)cc3C2)NC(c2ncc(F)cc2F)=NC1c1ccc(F)c(F)c1Cl (single isomer, unassigned) [Compound 43b, 3-(5-(6-(2-Chloro-3,4-difluorophenyl)-2-(3,5-difluoropyridin-2-yl)-5-(ethoxycarbonyl)-3,6-dihydropyrimidin-4-yl)-4,5,6,7-tetrahydro-2H-indazol-2-yl)propanoic acid]",125 nM,31300 nM,,,
"COC(=O)C1=C(C2CCc3nn(CCC(=O)O)cc3C2)NC(c2nccs2)=NC1c1ccc(F)c(F)c1Cl (single isomer, unassigned) [Compound 70b, 3-(-5-(6-(2-chloro-3,4-difluorophenyl)-5-(methoxycarbonyl)-2-(thiazol-2-yl)-3,6-dihydropyrimidin-4-yl)-4,5,6,7-tetrahydro-2H-indazol-2-yl)propanoic acid]",83 nM,22700 nM,,,
"COC(=O)C1=C(C2CCc3nn(CCCC(=O)O)cc3C2)NC(c2nccs2)=NC1c1ccc(F)c(F)c1Cl (single isomer, unassigned) [Compound 74B, 4-(5-(6-(2-chloro-3,4-difluorophenyl)-5-(methoxycarbonyl)-2-(thiazol-2-yl)-3,6-dihydropyrimidin-4-yl)-4,5,6,7-tetrahydro-2H-indazol-2-yl)butanoic acid]",66.1 nM,19600 nM,,,
